Tests used:
[1] = system: rats subjected to FPI (TBI model); assay: Hippocampal long-term potentiation (LTP) in slices four days after TBI (rat FPI); format: in vivo
Method: (§1) Craniotomy and lateral fluid percussion injury (FPI) were performed using a previously validated and published procedure. Farias S, et al. J. Neurotraum, 26, 1977-1986, 2009; Frey L. C. et al. J. Neurosci. Methods 177, 267-272, 2009. Throughout the specification animals subjected to this protocol are referred to as having a TBI since this treatment protocol is a TBI model. Briefly, rats were anesthetized with 3-5% isoflurane, isosol, VEDCO Inc., St. Joseph, Mo., via nose cone and mounted in a stereotaxic head frame. A 3 millimeter (mm) craniotomy was created and centered at 3 mm caudal to bregma and 3.5 mm left of the sagittal suture, keeping the exposed dura intact. One steel support screw was embedded in the skull on the contralateral side. A Luer-Lock hub with an inside diameter of 3.5 mm was centered over the craniotomy and bonded to the skull with cyanoacrylate adhesive and capped. Dental acrylic, Snap, Parka, Inc., Edgewood, N.J., was poured around the huh and screw. After the acrylic hardened antibiotic ointment was applied around the cap and the animals were returned to their cages. […] Moistened food pellets were provided after injury, and all animals were monitored daily for well-being and weight changes. […]
Four days after FPI or at the times indicated in the figures for CHI model animals were sacrificed and the brains were rapidly removed and immersed in ice-cold, sucrose containing cutting buffer (87 mM NaCl, 2.5 mM KCl, 7 mM MgCl2, 0.5 mM CaCl2, 1.25 mM NaH2PO4, 25 mM D-glucose, 35 mM sucrose, and 25 mM NaHCO3) for 40-60 seconds to cool the interior of the brain. […] A bipolar tungsten stimulating electrode was placed in the Schaffer collateral (SC) pathway to evoke synaptic field excitatory postsynaptic potentials (fEPSPs) recorded in the stratum radiatum using a nearby glass micropipette filled with aCSF. […]

[2] = system: rats subjected to FPI (TBI model); assay: Evans Blue extravasation, BBB permeability in hippocampus (rat FPI); format: in vivo; conditions: 15 minutes after TBI; slices five hours post-injury
Method: as §1, with “intact.” for “intact. One steel support screw was embedded in the skull on the contralateral side. A Luer-Lock hub with an inside diameter of 3.5 mm was centered over the craniotomy and bonded to the skull with cyanoacrylate adhesive and capped. Dental acrylic, Snap, Parka, Inc., Edgewood, N.J., was poured around the huh and screw. After the acrylic hardened antibiotic ointment was applied around the cap and the animals were returned to their cages.”
One hour prior to FPI, rats received a 5 ml intraperitoneal (IP) injection of Evans Blue (EB) solution, 2% w/v in saline. […] Images from each slice were stitched together using Fiji/ImageJ (NIH), and EB-positive cells in the hippocampal cell layers were quantified using the cell counter tool.
The inventors utilized Evans Blue (EB) fluorescence to assess BBB permeability in the rat FPI model. […] Fluorescence microscopy was used to image brain slices harvested five hours post-injury, taking advantage of EB's intrinsic fluorescent properties, excitation at 620 nm and emission at 680 nm. […]

## CC(C)c1ccc2c(c1)c(SC(C)(C)C)c(CC(C)(C)C(=O)O)n2Cc1ccc(Cl)cc1 [MK-886, 1-[(4-Chlorophenyl)methyl]-3-[(1,1-dimethylethyl)thio]-α,α-dimethyl-5-(1-methylethyl)-1H-Indole-2-propanoic acid]
[1]; 30 minutes post-injury
  LTP, % of control fEPSP slope at 58-60 min: 256.13+/−8.527%
[1]; 30 minutes pre-injury
  LTP, % of control fEPSP slope at 58-60 min: 242.75+/−76.94%
[1]; 60 minutes post-injury
  LTP, % of control fEPSP slope at 58-60 min: 145.46+/−18.30
[2]
  number of EB-positive cells in the CA1 region: 69.25+/−36.82
